Among the data in PubChem BioAssay AID553 (University of Pittsburgh Molecular Library Screening Center, 2006) are IC50 values, retold here.

Structures are written as SMILES. The source made the active and inactive calls. No rule for the calls is given here.

Sequence of Dual specificity protein phosphatase 6 (Rattus norvegicus) (Q64346 whole entry, looked up): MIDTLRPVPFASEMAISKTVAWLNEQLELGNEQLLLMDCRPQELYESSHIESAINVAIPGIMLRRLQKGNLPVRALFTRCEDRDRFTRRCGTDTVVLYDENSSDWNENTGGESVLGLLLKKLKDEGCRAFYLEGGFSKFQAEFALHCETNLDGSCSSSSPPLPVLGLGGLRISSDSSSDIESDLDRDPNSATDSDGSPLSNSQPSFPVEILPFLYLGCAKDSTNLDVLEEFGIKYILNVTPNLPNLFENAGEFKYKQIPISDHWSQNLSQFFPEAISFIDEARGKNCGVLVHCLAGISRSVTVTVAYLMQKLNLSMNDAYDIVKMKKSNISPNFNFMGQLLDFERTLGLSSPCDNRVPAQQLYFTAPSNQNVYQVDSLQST

The test has as its target Dual specificity protein phosphatase 6 (Rattus norvegicus) (UniProt Q64346). The test is described as follows: rat DUSP6 enzyme activity inhibition – biochemical, in vitro, hit/probe assessment, dose response (AID 553). To be noted: recombinant MKP-3 phosphatase, fluorescence intensity.
Regarding `COC(=O)C1=C(C)NC2=C(C(=O)c3ccccc32)C1c1ccc(-c2ccc(C(=O)O)cc2)o1` (configuration not stated), the IC50 (as a rule, the concentration that inhibits the measured activity by half) is > 50 µM (inactive). In the case of `N#C/C(=C(/O)CSc1nnc(Cc2cccs2)n1C1CCCCC1)c1nc2ccccc2[nH]1`, the IC50 is > 50 µM (inactive).

Turning to `CCOC(=O)c1ccc(NC2c3ncccc3C(=O)N2Cc2ccc(F)cc2)cc1` (configuration not stated), the IC50 is > 50 µM (inactive).

With `CCSCCOC(=O)C1=C(C)NC2=C(C(=O)CCC2)C1c1coc2ccccc2c1=O` (configuration not stated), the IC50 is > 50 µM (inactive). Turning to `O=C1c2cccnc2C(Nc2ccc(S(=O)(=O)N3CCCCCC3)cc2)N1Cc1ccccc1` (configuration not stated), the IC50 was > 50 µM (inactive). The value for `Oc1ccc2ccccc2c1C=NC12CN3CCN(CN(C3)C1)C2` was > 50 µM (inactive); that for `O=C1C(C2=C(O)c3ccccc3C2=O)=Nc2ccccc21` was 18.3 µM.
